Patent publication US20050197338A1, “Substituted pyrazole urea compounds for the treatment of inflammation” (priority 2003, published 2005)

Target: T1, human IKK-2 (rhIKK-2 homodimer) (Homo sapiens, UniProt O14920)
T1 construct: FLAG (DYKDDDDKD) (C); made in house; host or cells: insect cells (baculovirus, pFastBac)
T1 sequence (O14920 1-756): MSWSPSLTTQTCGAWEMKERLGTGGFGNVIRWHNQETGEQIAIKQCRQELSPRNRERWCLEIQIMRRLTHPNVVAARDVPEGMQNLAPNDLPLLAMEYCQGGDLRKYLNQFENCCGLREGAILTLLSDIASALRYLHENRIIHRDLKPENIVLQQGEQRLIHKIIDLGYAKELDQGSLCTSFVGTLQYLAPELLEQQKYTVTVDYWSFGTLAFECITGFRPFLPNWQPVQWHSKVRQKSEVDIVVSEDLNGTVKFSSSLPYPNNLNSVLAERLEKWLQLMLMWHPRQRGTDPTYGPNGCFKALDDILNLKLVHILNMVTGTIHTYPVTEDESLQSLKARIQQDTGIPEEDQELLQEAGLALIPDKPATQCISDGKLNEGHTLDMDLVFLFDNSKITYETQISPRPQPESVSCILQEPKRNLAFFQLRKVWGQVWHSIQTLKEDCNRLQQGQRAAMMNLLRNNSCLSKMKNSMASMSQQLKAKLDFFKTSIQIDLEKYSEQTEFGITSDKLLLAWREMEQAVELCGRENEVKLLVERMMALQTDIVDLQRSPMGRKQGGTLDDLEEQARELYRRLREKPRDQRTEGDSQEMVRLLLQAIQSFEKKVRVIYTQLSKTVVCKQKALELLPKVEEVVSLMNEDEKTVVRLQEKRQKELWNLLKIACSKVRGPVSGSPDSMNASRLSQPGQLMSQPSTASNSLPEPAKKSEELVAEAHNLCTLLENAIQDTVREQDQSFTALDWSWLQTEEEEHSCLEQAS
Assay: IKK-2 Resin Enzyme Assay (Human IKK-2 Enzyme Assay)
Assay type: biochemical
Conditions: human IKK-2, resin enzyme assay; read-out: IC50 (μM) hIKK-2
How it was run: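 C-terminally FLAG-tagged human IKK-2 homodimer, baculovirus-expressed in insect cells and anti-FLAG purified. Reaction mix: 5 μM biotinylated IκBα peptide (Ser32/Ser36 region), 1 μM ATP with [γ-33P]ATP, 2 mM MgCl2, 2 mM MnCl2, 10 mM NaF, 1 mM DTT, 25 mM HEPES pH 7.6. Incubated 30 min at 25 °C; IC50 derived.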

Row | SMILES | IC50
1 | NC(=O)Nc1cn(-c2ccc(-c3ccc(F)cc3O)cc2)nc1C(N)=O [Example 98, 4-[(aminocarbonyl)amino]-1-(4′-fluoro-2′-hydroxy-1,1′-biphenyl-4-yl)-1H-pyrazole-3-carboxamide] | 1.04 µM
2 | Cc1cc(-n2cc(NC(N)=O)c(C(N)=O)n2)ccc1I [Example 8, 1-(4-iodo-3-methyl-phenyl)-4-ureido-1H-pyrazole-3-carboxylic acid amide] | 0.0676 µM
